In brackets after ≈: the same amount, converted by molar mass.
Legend:
[1] = system: Staphylococcus aureus; test: Serial Dilution Test (Broth Titer Test), antibacterial, Staphylococcus aureus; assay type: cell-based; settings: for MIC: Staphylococcus aureus, read-out: SDT, MIC; for SDT, MIC: in vitro serial dilution test, S = Staphylococcus aureus
Experimental: (§1) Antibacterial and antifungal activity were evaluated by the Serial Dilution Test (Broth Titer Test) wherein a series of broths containing varying dilutions of a test compound and an organism are halved starting with 1:1,000. The values shown represent the maximum dilution in parts per million at which the compound under evaluation renders complete control of the organism. Pseudomonas aeruginosa (P), Staphylococcus aureus (S), and Escherichia coli (E) were the bacterial organisms employed in this test, and the fungi employed were Aspergillus niger (A) and Rhizopus stolonifer (R).
(§2) ^a In vitro serial dilution test (SDT), minimum inhibitory
(§3) concentrations (MIC) against E = E. coli, P = Ps. aeruginosa, S =
(§4) Staphylococcus aureus, A = A. niger, and R = Rhizopus stolonifer are give
(§5) in parts per million of a biocide.

[2] = system: Helminthosporium teres; test: whole plant or invertebrate; assay type: in vivo; settings: Pyrenophora teres, in Hordeum vulgare, read-out: Disease Control Level, BH
[3] = system: Botrytis cinerea; test: whole plant or invertebrate; assay type: in vivo; settings: for Disease Control Level, BOT: 150 ppm; for pest or weed control at 38 ppm / pest or weed control at 75 ppm / pest or weed control at 300 ppm: Botrytis cinerea, read-out: Disease Control Level, BOT
[4] = system: Erysiphe polygoni; test: whole plant or invertebrate; assay type: in vivo; settings: read-out: Disease Control Level, BPM
[5] = system: Plasmopora viticola; test: whole plant or invertebrate; assay type: in vivo; settings: for pest or weed control at 38 ppm / pest or weed control at 75 ppm / pest or weed control at 300 ppm: read-out: Disease Control Level, GDM
[6] = system: Piricularia oryzae; test: whole plant or invertebrate; assay type: in vivo; settings: for Disease Control Level, RB: 150 ppm
[7] = system: Phytophthora infestans; test: whole plant or invertebrate; assay type: in vivo
[8] = system: Puccinia graminis f. sp. tritici; test: whole plant or invertebrate; assay type: in vivo, Puccinia graminis f. sp. tritici race 15B-2; settings: for Disease Control Level, WSR: 150 ppm, wheat seedlings
[9] = system: E. coli; test: Serial Dilution Test (Broth Titer Test), antibacterial, E. coli; assay type: cell-based, Escherichia coli; settings: for MIC: Escherichia coli, read-out: SDT, MIC; for SDT, MIC: in vitro serial dilution test, E = E. coli
Experimental: as §1, §2, §3, §4, §5

[10] = system: Ps. aeruginosa; test: Serial Dilution Test (Broth Titer Test), antibacterial, Ps. aeruginosa; assay type: cell-based, Pseudomonas aeruginosa; settings: for MIC: Pseudomonas aeruginosa, read-out: SDT, MIC; for SDT, MIC: in vitro serial dilution test, P = Ps. aeruginosa
Experimental: as §1, §2, §3, §4, §5

[11] = system: A. niger; test: Serial Dilution Test (Broth Titer Test), antifungal, A. niger; assay type: cell-based, Aspergillus niger; settings: in vitro serial dilution test; for MIC: Aspergillus niger, read-out: SDT, MIC
Experimental: as §1, §2, §3, §4, §5

[12] = system: Rhizopus stolonifer; test: Serial Dilution Test (Broth Titer Test), antifungal, Rhizopus stolonifer; assay type: cell-based; settings: in vitro serial dilution test; R = Rhizopus stolonifer
Experimental: as §1, §2, §3, §4, §5

[13] = Pyricularia oryzae, read-out: Disease Control Level, RB
[14] = Phytophthora infestans, in Solanum lycopersicum, read-out: Disease Control Level, TLB
[15] = Puccinia graminis, read-out: Disease Control Level, WSR

| Compound | MIC [1] [µg/mL] | pest or weed control at 300 ppm [2] [%] | Disease Control Level, BOT [3] | pest or weed control at 38 ppm [3] [%] | pest or weed control at 75 ppm [3] [%] | pest or weed control at 300 ppm [3] [%] | pest or weed control at 300 ppm [4] [%] | pest or weed control at 38 ppm [5] [%] | pest or weed control at 75 ppm [5] [%] | Disease Control Level, GDM ([5]; 150 ppm) | pest or weed control at 300 ppm [5] [%] | Disease Control Level, RB [6] | pest or weed control at 38 ppm [6, 13] [%] | pest or weed control at 75 ppm [6, 13] [%] | pest or weed control at 300 ppm [7, 14] [%] | Disease Control Level, WSR [8] | pest or weed control at 75 ppm [8, 15] [%] | pest or weed control at 300 ppm [8, 15] [%] | further results |
| --- | --- | --- | --- | --- | --- | --- | --- | --- | --- | --- | --- | --- | --- | --- | --- | --- | --- | --- | --- |
| CN(C)C(=S)Sc1cc(=O)n(Cc2ccccc2)s1 [Example 1, 2-Benzyl-5-(N,N-dimethylthiocarbamoyl)thio-4-isothiazolin-3-one] | > 500 | 97 to 100 | B/B | 70 to 89 | 70 to 89 | 90 to 96 | 50 | 50 to 69 | 70 to 89 | C/C | 90 to 96 | A/E | 97 to 100 | 97 to 100 | 50 | C/C | 50 | 90 to 96 | pest or weed control at 38 ppm [2]: 50%; pest or weed control at 75 ppm [2]: 50%; pest or weed control at 150 ppm [2]: 50%; pest or weed control at 38 ppm [8, 15]: 50% |
| Cc1c(SC(=S)N(C)C)sn(-c2ccccc2)c1=O [Example 2, 5-(N,N-Dimethylthiocarbamoyl)thio-4-methyl-2-phenyl-4-isothiazolin-3-one] | – | 50 | B/C | 70 to 89 | 90 to 96 | 90 to 96 | 50 | – | – | – | 50 | A/E | 90 to 96 | 90 to 96 | 50 | – | – | 70 to 89 | MIC [9]: 500 µg/mL (≈ 1610 µM); MIC [10]: > 500 µg/mL; MIC [11]: 500 µg/mL (≈ 1610 µM) |
| CN(C)C(=S)Sc1sn(CCc2ccccc2)c(=O)c1Cl [Example 3, 4-Chloro-5-(N,N-dimethylthiocarbamoyl)thio-2-phenethyl-4-isothiazolin-3-one] | > 500 | 50 | – | – | – | 50 | 50 | – | – | – | 50 | – | – | – | 50 | – | – | 70 to 89 | pest or weed control at 300 ppm [6, 13]: 50% |
| CN(C)C(=S)Sc1cc(=O)n(CCc2ccccc2)s1 [Example 4] | > 500 | 50 | A/C | 90 to 96 | 90 to 96 | 90 to 96 | 50 | 90 to 96 | 97 to 100 | A/A | 90 to 96 | – | 50 | 50 | 50 | E/E | – | 97 to 100 | pest or weed control at 150 ppm [6, 13]: 97 to 100% |
| CN(C)C(=S)Sc1cc(=O)n(C)s1 [Example 5] | – | 97 to 100 | A/C | 90 to 96 | 97 to 100 | 90 to 96 | 50 | 97 to 100 | 97 to 100 | A/A | 90 to 96 | A/E | 97 to 100 | 97 to 100 | 50 | C/E | 50 | 90 to 96 | MIC [9]: 500 µg/mL (≈ 2130 µM); MIC [10]: > 500 µg/mL; MIC [11]: 125 µg/mL (≈ 533 µM); pest or weed control at 19 ppm ([2]; 19 ppm): 50%; pest or weed control at 38 ppm [2]: 50%; pest or weed control at 75 ppm [2]: 50%; pest or weed control at 150 ppm [2]: 50%; Disease Control Level, GDM ([5]; 19 ppm): C/E; pest or weed control at 19 ppm [6, 13]: 97 to 100% |
| CCCCCCCCn1sc(SC(=S)N(C)C)cc1=O [Example 6] | – | 50 | – | – | – | 50 | 50 | – | – | – | 50 | – | – | – | – | – | – | 97 to 100 | – |
| Cc1c(SC(=S)N(C)C)sn(CCc2ccccc2)c1=O [Example 7] | > 500 | 50 | – | – | – | 50 | 50 | – | – | – | 50 | B/E | 90 to 96 | 90 to 96 | 50 | – | 50 | 97 to 100 | pest or weed control at 38 ppm [8, 15]: 50%; pest or weed control at 150 ppm [8, 15]: 50% |
| Cc1c(SC(=S)N(C)C)sn(-c2ccc(Br)cc2)c1=O [Example 8] | – | – | – | – | – | – | – | – | – | A/B | – | A/E | – | – | – | C/C | – | – | SDT, MIC [9]: 500 PPM; SDT, MIC [10]: 500 PPM; SDT, MIC [1]: 500 PPM; SDT, MIC [11]: 500 PPM; SDT, MIC [12]: 250 PPM |
| Cc1c(SC(=S)N(C)C)sn(-c2ccc(Cl)cc2)c1=O [Example 9] | – | – | C/C | – | – | – | – | – | – | A/E | – | A/A | – | – | – | – | – | – | SDT, MIC [9]: 500 PPM; SDT, MIC [10]: 500 PPM; SDT, MIC [1]: 500 PPM; SDT, MIC [11]: 500 PPM; SDT, MIC [12]: 250 PPM |
| Cc1c(SC(=S)N(C)C)sn(-c2ccc(Cl)cc2Cl)c1=O [Example 10] | – | – | – | – | – | – | – | – | – | – | – | – | – | – | – | – | – | – | SDT, MIC [9]: 500 PPM; SDT, MIC [10]: 500 PPM; SDT, MIC [1]: 500 PPM; SDT, MIC [11]: 500 PPM; SDT, MIC [12]: 250 PPM |
| O=c1cc(SC(=S)N(Cc2ccccc2)Cc2ccccc2)sn1CCc1ccccc1 [Example 12, 5-(N,N-Dibenzylthiocarbamoyl)thio-2-phenethyl-4-isothiazolin-3-one] | – | 50 | – | – | – | 50 | 50 | – | – | – | 50 | – | – | – | 50 | – | – | 50 | pest or weed control at 300 ppm [6, 13]: 50% |
| Cn1sc(SC(=S)N2CCCC2)cc1=O [Example 13, 2-Methyl-5-[N,N-tetramethylenethiocarbamoyl]thio-4-isothiazolin-3-one] | > 500 | 50 | A/E | 70 to 89 | 70 to 89 | 97 to 100 | 50 | 97 to 100 | 97 to 100 | A/E | 97 to 100 | A/E | 90 to 96 | 90 to 96 | 90 to 96 | C/E | 70 to 89 | 90 to 96 | pest or weed control at 300 ppm [6, 13]: 90 to 96%; Disease Control Level, TLB ([7]; 150 ppm, tomato seedlings): A/E; pest or weed control at 38 ppm [7, 14]: 50%; pest or weed control at 75 ppm [7, 14]: 90 to 96%; pest or weed control at 38 ppm [8, 15]: 70 to 89% |
| N#Cc1cc(=O)n(CCc2ccccc2)s1 [Example 15, 5-Cyano-2-phenethyl-4-isothiazolin-3-one] | > 500 | – | – | – | – | – | – | – | – | – | – | – | – | – | – | – | – | – | – |

— patent publication US4310590A (priority 1979, dated 1982)
